From patent US10414811B2, “Protease-resistant lipidated GLP-1 analogs” (MEDIMMUNE LIMITED, priority 2015, dated 2019)
Read-outs that look alike come from different tables or passages of the source. Numbered stars: 1 amine (or outer) side, 2 acyl side, 3 side chain; on linkers, the order of the positions; unused ones are H or OH. Square brackets hold non-standard residues; d marks the D form. Side chains are listed from the residue outwards. Peptide text beside a SMILES is read from it. * marks the point of attachment. γGlu = O=C(O)[C@H](CCC(=O)[*:2])N[*:1]; Palmitoyl = CCCCCCCCCCCCCCCC(=O)*; αMeF = C[C@](N)(Cc1ccccc1)C(=O)O; αMeK = C[C@](N)(CCCCN)C(=O)O; Lauroyl = CCCCCCCCCCCC(=O)*; αMeS = C[C@](N)(CO)C(=O)O; AEEA = NCCOCCOCC(=O)O; Aib = CC(C)(N)C(=O)O

Columns and labels:
Assay type in all cases: cell-based
[1] = target: T1, human glucose-dependent insulinotropic peptide receptor (GIPR) (Homo sapiens, UniProt P48546); assay: cAMP assay, human GIPR cells
T1 construct: expressed in transfected cells
T1 sequence (P48546 22-466): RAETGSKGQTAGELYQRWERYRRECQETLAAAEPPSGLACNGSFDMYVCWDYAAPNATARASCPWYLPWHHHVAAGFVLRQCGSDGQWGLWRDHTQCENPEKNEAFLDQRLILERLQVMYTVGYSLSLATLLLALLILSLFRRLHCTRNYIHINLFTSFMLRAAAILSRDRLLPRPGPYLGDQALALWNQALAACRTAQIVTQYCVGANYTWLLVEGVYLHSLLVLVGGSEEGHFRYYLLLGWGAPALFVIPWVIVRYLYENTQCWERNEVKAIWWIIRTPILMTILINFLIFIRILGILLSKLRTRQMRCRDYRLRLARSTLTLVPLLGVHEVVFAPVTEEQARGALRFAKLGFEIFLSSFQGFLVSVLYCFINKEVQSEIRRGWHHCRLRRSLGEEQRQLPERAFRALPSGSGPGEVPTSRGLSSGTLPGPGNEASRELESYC
Experimental: (§1) Sample dilutions are made in duplicate.
(§2) A frozen cryo-vial of cells expressing the receptor of interest is thawed rapidly in a water-bath, transferred to pre-warmed assay buffer and spun at 240×g for 5 minutes. Cells are re-suspended in assay buffer at a batch-dependent optimized concentration (e.g. hGCGR cells at 2×10^5 cells/ml, hGLP-1R and hGIPR cells at 1×10^5 cells/ml).
(§3) To this, 5 μL cell suspension is added and the plates incubated at room temperature for 30 minutes.
(§4) cAMP levels are measured using a commercially available cAMP dynamic 2 HTRF kit (Cisbio, Cat #62AM4PEJ), following the two step protocol as per manufacturer's recommendations. In brief; anti-cAMP cryptate (donor fluorophore) and cAMP-d2 (acceptor fluorophore) are made up separately by diluting each 1/20 in conjugate & lysis buffer provided in the kit. 5 μL anti-cAMP cryptate is added to wells of the assay plate, and 5 μL cAMP-d2 is added to wells except non-specific binding (NSB) wells, to which conjugate and lysis buffer are added. […] EC50 values of the synthetic peptides determined in cAMP assays are then determined.
(§5) Data is transformed to % Delta F as described in the manufacturer's guidelines and analyzed by 4-parameter logistic fit to determine EC50 values. […] To compare the balance of activities at the GLP-1R and GCGR between different peptides and across different conditions, these can be correlated, where the EC50's are related to those of comparator peptides.

[2] = target: T2, human glucagon receptor (GCGR) (Homo sapiens, UniProt P47871); assay: cAMP assay, human GCGR cells
T2 construct: expressed in transfected cells
T2 sequence (P47871 26-477): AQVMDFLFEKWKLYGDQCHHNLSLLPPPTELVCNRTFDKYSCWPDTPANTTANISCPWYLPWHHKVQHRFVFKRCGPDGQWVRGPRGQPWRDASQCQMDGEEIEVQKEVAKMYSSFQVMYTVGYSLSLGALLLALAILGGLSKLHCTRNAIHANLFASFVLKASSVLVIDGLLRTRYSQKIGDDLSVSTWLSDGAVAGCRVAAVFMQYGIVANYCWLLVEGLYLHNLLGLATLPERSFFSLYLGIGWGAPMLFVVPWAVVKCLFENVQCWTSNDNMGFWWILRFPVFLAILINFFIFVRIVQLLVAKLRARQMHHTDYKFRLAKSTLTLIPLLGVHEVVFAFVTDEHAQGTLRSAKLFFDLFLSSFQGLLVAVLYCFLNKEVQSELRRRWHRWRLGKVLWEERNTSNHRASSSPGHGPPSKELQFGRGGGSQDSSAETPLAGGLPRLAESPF
Experimental: as §1, §2, §3, §4, §5

[3] = target: T3, human GLP-1 receptor (GLP-1R) (Homo sapiens, UniProt P43220); assay: cAMP assay, human GLP-1R cells
T3 construct: expressed in transfected cells
T3 sequence (P43220 24-463): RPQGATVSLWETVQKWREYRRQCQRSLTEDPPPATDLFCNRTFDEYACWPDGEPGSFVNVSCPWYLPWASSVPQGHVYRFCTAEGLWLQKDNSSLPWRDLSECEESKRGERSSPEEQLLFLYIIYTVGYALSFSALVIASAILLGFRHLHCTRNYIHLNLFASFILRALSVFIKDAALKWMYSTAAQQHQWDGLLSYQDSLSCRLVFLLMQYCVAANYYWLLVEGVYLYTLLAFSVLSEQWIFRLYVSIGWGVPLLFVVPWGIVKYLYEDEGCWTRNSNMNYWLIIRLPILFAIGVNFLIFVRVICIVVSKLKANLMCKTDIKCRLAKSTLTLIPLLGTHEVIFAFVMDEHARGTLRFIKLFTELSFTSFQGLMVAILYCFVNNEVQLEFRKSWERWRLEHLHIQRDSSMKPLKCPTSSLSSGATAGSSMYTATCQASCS
Experimental: as §1, §2, §3, §4, §5

[4] = cAMP assay, first determination (n1), read-out: Primary assay EC50 GIP-R (n1)
[5] = cAMP assay, second determination (n2), read-out: Primary assay EC50 GIP-R (n2)
[6] = cAMP assay, first determination (n1), read-out: Primary assay EC50 Gluc-R (n1)
[7] = cAMP assay, second determination (n2), read-out: Primary assay EC50 Gluc-R (n2)
[8] = cAMP assay, first determination (n1), read-out: Primary assay EC50 GLP-1R n1
[9] = cAMP assay, second determination (n2), read-out: Primary assay EC50 GLP-1R n2
[10] = mean of n1 and n2, read-out: Mean pM GLP-1R

EC50 [1, 4]	EC50 [1, 5]	EC50 [2, 6]	EC50 [2, 7]	EC50 [3, 8]	EC50 [3, 9]	EC50 [3, 10]	EC50 ([1]; tris-lipidated peptides, first replicate, read-out: Primary assay EC50 GIP-R (n1))	EC50 ([2]; tris-lipidated peptides, first replicate, read-out: Primary assay EC50 Gluc-R (n1))	Compound
≥ 28 nM	≥ 28 nM	≥ 28 nM	≥ 28 nM	290 pM	190 pM	238 pM	–	–	CC[C@H](C)[C@H](NC(=O)[C@](C)(Cc1ccccc1)NC(=O)[C@H](CCC(=O)O)NC(=O)[C@H](CCCCNC(=O)CC[C@H](NC(=O)CCCCCCCCCCCCCCCCC(=O)O)C(=O)O)NC(=O)[C@H](C)NC(=O)[C@H](C)NC(=O)[C@H](CCC(=O)O)NC(=O)CNC(=O)[C@H](CCC(=O)O)NC(=O)[C@H](CC(C)C)NC(=O)[C@](C)(Cc1ccccc1)NC(=O)[C@H](CO)NC(=O)[C@](C)(CO)NC(=O)[C@@H](NC(=O)[C@H](CC(=O)O)NC(=O)[C@H](CO)NC(=O)[C@@H](NC(=O)[C@](C)(Cc1ccccc1)NC(=O)[C@H](CO)NC(=O)CNC(=O)[C@H](CCC(=O)O)NC(=O)C(C)(C)NC(=O)[C@@H](N)Cc1c[nH]cn1)[C@@H](C)O)C(C)C)C(=O)N[C@@H](C)C(=O)N[C@@](C)(Cc1ccccc1)C(=O)N[C@H](C(=O)N[C@H](C(=O)N[C@@](C)(CCCCN)C(=O)NCC(=O)NCC(N)=O)C(C)C)C(C)C [compound 155]
≥ 28 nM	≥ 28 nM	≥ 28 nM	≥ 28 nM	≥ 28000 pM	≥ 28000 pM	≥ 27800 pM	–	–	CCCCCCCCCCCCCCCC(=O)N[C@@H](CCC(=O)NCCCC[C@H](NC(=O)C(C)(C)NC(=O)[C@@H](N)Cc1c[nH]cn1)C(=O)NCC(=O)N[C@@H](CO)C(=O)N[C@@](C)(Cc1ccccc1)C(=O)N[C@H](C(=O)N[C@@H](CO)C(=O)N[C@@H](CC(=O)O)C(=O)N[C@H](C(=O)N[C@@](C)(CO)C(=O)N[C@@H](CO)C(=O)N[C@@](C)(Cc1ccccc1)C(=O)N[C@@H](CC(C)C)C(=O)N[C@@H](CCC(=O)O)C(=O)NCC(=O)N[C@@H](CCC(=O)O)C(=O)N[C@@H](C)C(=O)N[C@@H](C)C(=O)N[C@@](C)(CCCCN)C(=O)N[C@@H](CCC(=O)O)C(=O)N[C@@](C)(Cc1ccccc1)C(=O)N[C@H](C(=O)N[C@@H](C)C(=O)N[C@@](C)(Cc1ccccc1)C(=O)N[C@H](C(=O)N[C@H](C(=O)N[C@@](C)(CCCCN)C(=O)NCC(=O)NCC(N)=O)C(C)C)C(C)C)[C@@H](C)CC)C(C)C)[C@@H](C)O)C(=O)O [compound 97] (H-H[Aib]K([γGlu-Palmitoyl])GS[αMeF]TSDV[αMeS]S[αMeF]LEGEAA[αMeK]E[αMeF]IA[αMeF]VV[αMeK]GG-NH2; N-terminus assumed)
45 nM	45 nM	10 nM	13 nM	–	–	–	–	–	CC(C)[C@H](NC(=O)[C@H](CCC(=O)O)NC(=O)[C@H](CO)NC(=O)[C@H](CO)NC(=O)[C@](C)(Cc1ccccc1)NC(=O)[C@H](CO)NC(=O)CNC(=O)[C@H](CCC(=O)O)NC(=O)C(C)(C)NC(=O)[C@@H](N)Cc1c[nH]cn1)C(=O)N[C@@H](CO)C(=O)N[C@@H](CO)C(=O)N[C@@](C)(Cc1ccccc1)C(=O)N[C@H](C(=O)N[C@@H](CCC(=O)O)C(=O)NCC(=O)N[C@@H](CCC(=O)O)C(=O)N[C@@H](C)C(=O)N[C@@H](C)C(=O)N[C@@](C)(CCCCN)C(=O)N[C@@H](CCC(=O)O)C(=O)N[C@@](C)(Cc1ccccc1)C(=O)N[C@H](C(=O)N[C@@H](C)C(=O)N[C@@](C)(Cc1ccccc1)C(=O)N[C@H](C(=O)N[C@H](C(=O)N[C@@](C)(CCCCN)C(=O)NCC(=O)NCC(N)=O)C(C)C)C(C)C)C(C)C)C(C)C [compound 12] (H-H[Aib]EGS[αMeF]SSEVSS[αMeF]VEGEAA[αMeK]E[αMeF]VA[αMeF]VV[αMeK]GG-NH2)
≥ 29 nM	≥ 29 nM	≥ 29 nM	≥ 29 nM	–	–	–	–	–	CC[C@H](C)[C@H](NC(=O)[C@](C)(Cc1ccccc1)NC(=O)[C@H](CCC(=O)O)NC(=O)[C@](C)(CCCCN)NC(=O)[C@H](C)NC(=O)[C@H](C)NC(=O)[C@H](CCC(=O)O)NC(=O)CNC(=O)[C@H](CCC(=O)O)NC(=O)[C@H](CC(C)C)NC(=O)[C@](C)(Cc1ccccc1)NC(=O)[C@H](CO)NC(=O)[C@H](CO)NC(=O)[C@@H](NC(=O)[C@H](CCC(=O)O)NC(=O)[C@H](CO)NC(=O)[C@H](CO)NC(=O)[C@](C)(Cc1ccccc1)NC(=O)[C@H](CO)NC(=O)CNC(=O)[C@H](CCC(=O)O)NC(=O)C(C)(C)NC(=O)[C@@H](N)Cc1c[nH]cn1)C(C)C)C(=O)N[C@@H](C)C(=O)N[C@@](C)(Cc1ccccc1)C(=O)N[C@H](C(=O)N[C@H](C(=O)N[C@@](C)(CCCCN)C(=O)NCC(=O)NCC(N)=O)C(C)C)C(C)C [compound 9] (H-H[Aib]EGS[αMeF]SSEVSS[αMeF]LEGEAA[αMeK]E[αMeF]IA[αMeF]VV[αMeK]GG-NH2; N-terminus assumed)
≥ 130 nM	≥ 130 nM	≥ 130 nM	≥ 130 nM	–	–	–	–	–	CC[C@H](C)[C@H](NC(=O)[C@H](Cc1ccccc1)NC(=O)[C@H](CCC(=O)O)NC(=O)[C@H](CCCCN)NC(=O)[C@H](C)NC(=O)[C@H](C)NC(=O)[C@H](CCC(N)=O)NC(=O)CNC(=O)[C@H](CCC(=O)O)NC(=O)[C@H](CC(C)C)NC(=O)[C@H](Cc1ccc(O)cc1)NC(=O)[C@H](CO)NC(=O)[C@H](CO)NC(=O)[C@@H](NC(=O)[C@H](CC(=O)O)NC(=O)[C@](C)(CO)NC(=O)[C@@H](NC(=O)[C@H](Cc1ccccc1)NC(=O)[C@@H](NC(=O)CNC(=O)[C@H](CCC(=O)O)NC(=O)C(C)(C)NC(=O)[C@@H](N)Cc1c[nH]cn1)[C@@H](C)O)[C@@H](C)O)C(C)C)C(=O)N[C@@H](C)C(=O)N[C@@H](Cc1c[nH]c2ccccc12)C(=O)N[C@@H](CC(C)C)C(=O)N[C@H](C(=O)N[C@@H](CCCCN)C(=O)NCC(=O)N[C@@H](CCCNC(=N)N)C(N)=O)C(C)C [compound 19]
≥ 540 nM	≥ 540 nM	≥ 540 nM	≥ 540 nM	–	–	–	–	–	CC[C@H](C)[C@H](NC(=O)[C@H](Cc1ccccc1)NC(=O)[C@H](CCC(=O)O)NC(=O)[C@H](CCCCN)NC(=O)[C@H](C)NC(=O)[C@H](C)NC(=O)[C@H](CCC(N)=O)NC(=O)CNC(=O)[C@H](CCC(=O)O)NC(=O)[C@H](CC(C)C)NC(=O)[C@H](Cc1ccc(O)cc1)NC(=O)[C@H](CO)NC(=O)[C@](C)(CO)NC(=O)[C@@H](NC(=O)[C@H](CC(=O)O)NC(=O)[C@](C)(CO)NC(=O)[C@@H](NC(=O)[C@H](Cc1ccccc1)NC(=O)[C@@H](NC(=O)CNC(=O)[C@H](CCC(=O)O)NC(=O)C(C)(C)NC(=O)[C@@H](N)Cc1c[nH]cn1)[C@@H](C)O)[C@@H](C)O)C(C)C)C(=O)N[C@@H](C)C(=O)N[C@@H](Cc1c[nH]c2ccccc12)C(=O)N[C@@H](CC(C)C)C(=O)N[C@H](C(=O)N[C@@H](CCCCN)C(=O)NCC(=O)N[C@@H](CCCNC(=N)N)C(N)=O)C(C)C [compound 23]
–	–	–	–	–	–	–	19.9 nM	19.9 nM	CCCCCCCCCCCC(=O)N[C@@H](CCC(=O)NCCOCCOCC(=O)NCCOCCOCC(=O)NCCCC[C@H](NC(=O)CNC(=O)[C@H](CCC(=O)O)NC(=O)[C@H](CC(C)C)NC(=O)[C@H](Cc1ccc(O)cc1)NC(=O)[C@H](CO)NC(=O)[C@H](CO)NC(=O)[C@H](CCCCNC(=O)COCCOCCNC(=O)COCCOCCNC(=O)CC[C@H](NC(=O)CCCCCCCCCCC)C(=O)O)NC(=O)[C@H](CC(=O)O)NC(=O)[C@H](CO)NC(=O)[C@@H](NC(=O)[C@](C)(Cc1ccccc1)NC(=O)[C@H](CO)NC(=O)CNC(=O)[C@H](CCC(=O)O)NC(=O)C(C)(C)NC(=O)[C@@H](N)Cc1c[nH]cn1)[C@@H](C)O)C(=O)N[C@@H](C)C(=O)N[C@@H](C)C(=O)N[C@@](C)(CCCCN)C(=O)N[C@@H](CCC(=O)O)C(=O)N[C@@H](Cc1ccccc1)C(=O)N[C@H](C(=O)N[C@@H](C)C(=O)N[C@@H](Cc1ccccc1)C(=O)N[C@@H](CCCCNC(=O)COCCOCCNC(=O)COCCOCCNC(=O)CC[C@H](NC(=O)CCCCCCCCCCC)C(=O)O)C(=O)N[C@H](C(=O)N[C@@H](CCC(=O)O)C(=O)NCC(=O)NCC(N)=O)C(C)C)[C@@H](C)CC)C(=O)O [compound 472] (H-H[Aib]EGS[αMeF]TSDK([AEEA-AEEA-γGlu-Lauroyl])SSYLEGK([AEEA-AEEA-γGlu-Lauroyl])AA[αMeK]EFIAFK([AEEA-AEEA-γGlu-Lauroyl])VEGG-NH2; N-terminus assumed)
